Tested on: Male Crl: WI rats
Experiment: Effect of suppressing impulsivity in rat (T-maze delayed large reward choice, i.p.)
Assay type: in vivo
Details: 3 mg/kg, daily over 5 days, tested 40 min after administration, compared with vehicle control group
Text: Male Crl: WI rats were obtained at post-natal day 14 and weaning was occurred at post-natal day 21. Starting from then, the rats were housed 2-3 per cage and food-restricted (Day 1). The feeding amount was 5 g/day at post-natal day 21-28 (Day 1-8), 8.5 g/day at post-natal day 29-32 (Day 9-12), and 10 g/day at post-natal day 33-36 (Day 13-16), preventing their body weight from being 60% or less of the weight of the free feeding rats.
4 days after the beginning of the food restriction (Day 5), pellets were put on goal boxes located in the left-side and the right-side of T-maze. Then, the rats were allowed to freely explore the T-maze-box for 5 min to get habituated to the T-maze box and learn that the pellets were put on the goal boxes located in the left-side and the right-side. For 4 consecutive days from the next day (Day 6-9), one pellet (20 mg×1) was put in one side of the goal box as a small reward, and 5 pellets (20 mg×5) were put in the other side of the goal box as a large reward, and the rats were trained to learn their positions. Each rat underwent 10-trial per day trainings. […] The evaluations of the drug efficacy were started on Day 12. The compounds of the present invention were dissolved in distilled water containing 3% of 1 mol/L hydrochloric acid and administered i.p. to the trained rats to attain the dose of 1, 3 or 10 mg/kg. […]

O=C(N[C@H]1CC[C@H](CCN2CCc3sc(OCC(F)F)nc3C2)CC1)c1cccc2ncccc12 [Compound I-085]
number of choices of the large reward during total 50 trials of 5 days: significantly increased

Source: patent US10870660B2, “Nitrogen-containing condensed ring compounds having dopamine D3 antagonistic effect” (Shionogi & Co., Ltd., priority 2016, dated 2020)
